Experiments:
[1] = test system: peripheral blood mononuclear cells (PBMC); assay: qPCR (TaqMan) measurement of mRNA expression in PBMC treated with compound A; format: cell-based, human; conditions: untreated cells = 1, corrected by 18S rRNA
Text: Since it is not easy to obtain a cancer tissue clinically, the measurement of the marker in hemocytes readily obtainable in peripheral blood would be more useful. Specifically peripheral blood was taken from three normal individuals (volunteers) and peripheral blood mononuclear cells were purified and treated with compound A, followed by measurement of change in expression of the gene (mRNA) by qPCR.
RNA samples were first prepared in accordance with the steps described in Example 2 (1) and (2).
Subsequently RNA was prepared to 30 ng/μl and cDNA was synthesized by using TaqMan Reverse Transcription Reagents (Applied Biosystems). The expression level of SLC25A19, TRAPPC4, GTF2H1, Id1, EDN1, ZCCHC6, HNRPA2B1, and HSPA9B was amplified with TaqMan Gene Expression Assays (catalog numbers below) (Applied Biosystems) as a probe by using TaqMan Universal PCR Master Mix (Applied Biosystems).
Reagents were prepared in accordance with the protocol, and measurement was carried out with ABI7900 (Applied Biosystems). Measured values were corrected by using the expression level of 18S rRNA (Hs99999901_s1, Applied Biosystems) as an internal control. The expression level of each gene was calculated with the expression level in the cells untreated with compound A as 1. […] In Table 3, for each gene evaluated, abbreviated name (Gene Symbol), accession number (Accession), alias name (Synonym), gene name (Gene Name), and the expression level upon treatment with varied concentration of E7107 (E7107 (nM)) were respectively shown.

[2] = test system: peripheral blood mononuclear cells (PBMC); assay: as above; format: cell-based, human; conditions: 30 nM; untreated cells = 1; corrected by 18S rRNA

CCC(O)C(C)C1OC1CC(C)(O)/C=C/C=C(\C)C1OC(=O)CC(O)CCC(C)(O)C(OC(=O)N2CCN(C3CCCCCC3)CC2)/C=C/C1C (stereo not drawn) [E7107, (8E,12E,14E)-7-((4-Cycloheptylpiperazin-1-yl)carbonyl)oxy-3,6,16,21-tetrahydroxy-6,10,12,16,20-pentamethyl-18,19-epoxytricosa-8,12,14-trien-11-olide]
EDN1 mRNA expression level (qPCR) ([1]; 3 nM): 0.45 | GTF2H1 mRNA expression level (qPCR) ([1]; 3 nM): 0.22 | HNRPA2B1 mRNA expression level (qPCR) ([1]; 3 nM): 0.48 | HSPA9 mRNA expression level (qPCR) ([1]; 3 nM): 0.39 | ID1 mRNA expression level (qPCR) ([1]; 3 nM): 0.5 | SLC25A19 mRNA expression level (qPCR) ([1]; 3 nM): 0.11 | TRAPPC4 mRNA expression level (qPCR) ([1]; 3 nM): 0.12 | ZCCHC8 mRNA expression level (qPCR) ([1]; 3 nM): 0.49 | EDN1 mRNA expression level (qPCR) ([1]; 10 nM): 0.2 | GTF2H1 mRNA expression level (qPCR) ([1]; 10 nM): 0.07 | HNRPA2B1 mRNA expression level (qPCR) ([1]; 10 nM): 0.29 | HSPA9 mRNA expression level (qPCR) ([1]; 10 nM): 0.26 | ID1 mRNA expression level (qPCR) ([1]; 10 nM): 0.15 | SLC25A19 mRNA expression level (qPCR) ([1]; 10 nM): 0.02 | TRAPPC4 mRNA expression level (qPCR) ([1]; 10 nM): 0.02 | ZCCHC8 mRNA expression level (qPCR) ([1]; 10 nM): 0.19 | EDN1 mRNA expression level (qPCR) ([1]; 30 nM): 0.11 | GTF2H1 mRNA expression level (qPCR) ([1]; 30 nM): 0.05 | HNRPA2B1 mRNA expression level (qPCR) ([1]; 30 nM): 0.24 | HSPA9 mRNA expression level (qPCR) ([1]; 30 nM): 0.17 | ID1 mRNA expression level (qPCR) ([1]; 30 nM): 0.09 | SLC25A19 mRNA expression level (qPCR) ([1]; 30 nM): 0.01 | TRAPPC4 mRNA expression level (qPCR) ([1]; 30 nM): 0.01 | ZCCHC8 mRNA expression level (qPCR) [2]: 0.13

Source: patent publication US20100086931A1, “METHOD FOR ASSAYING ACTION OF ANTITUMOR AGENT USING DECREASE IN GENE EXPRESSION LEVEL AS INDEX” (Eisai R&D Management Co., Ltd., priority 2007, published 2010)
